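Interpolation was linear, between the two tested concentrations surrounding the appropriate level; five concentrations were tested over 48 hours in 96-well plates. GI50: concentration for 50% inhibition of growth.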 Activity calls are given as the source filed them. No stated cut-off is given here; in the data, active = GI50 up to about 1.1 µM and inactive = higher.
Key:
Test in all cases: NCI tumour cell line growth inhibition, 48 h
OVCAR-8 = test system: OVCAR-8
SF-295 = test system: SF-295
SW-620 = test system: SW-620
HCT-15 = test system: HCT-15
SK-OV-3 = test system: SK-OV-3
LXFL 529 = test system: LXFL 529
EKVX = test system: EKVX
RPMI-8226 = test system: RPMI-8226
M19-MEL = test system: M19-MEL
SK-MEL-28 = test system: SK-MEL-28
KM12 = test system: KM12
M14 = test system: M14
NCI-H23 = test system: NCI-H23
TK-10 = test system: TK-10
SK-MEL-5 = test system: SK-MEL-5
XF498 = test system: XF498
HT-29 = test system: HT-29
SN12C = test system: SN12C
SR = test system: SR
DLD-1 = test system: DLD-1
CAKI-1 = test system: CAKI-1
SNB-78 = test system: SNB-78
OVCAR-5 = test system: OVCAR-5
786-0 = test system: 786-0
HL-60 = test system: HL-60
NCI-H522 = test system: NCI-H522
IGROV-1 = test system: IGROV-1
MOLT-4 = test system: MOLT-4
UO-31 = test system: UO-31
CCRF-CEM = test system: CCRF-CEM
HCT-116 = test system: HCT-116
OVCAR-3 = test system: OVCAR-3
HOP-18 = test system: HOP-18
DMS-273 = test system: DMS-273
HOP-62 = test system: HOP-62
U-251 = test system: U-251
A498 = test system: A498
ACHN = test system: ACHN
SNB-75 = test system: SNB-75
SF-539 = test system: SF-539
SNB-19 = test system: SNB-19
SF-268 = test system: SF-268
DMS-114 = test system: DMS-114
HCC 2998 = test system: HCC 2998
HOP-92 = test system: HOP-92
UACC-62 = test system: UACC-62
NCI-H460 = test system: NCI-H460
A549 = test system: A549
KM-20L2 = test system: KM-20L2
OVCAR-4 = test system: OVCAR-4
RXF 631 = test system: RXF 631
UACC-257 = test system: UACC-257

`C/C(=N/NS(=O)(=O)c1ccccc1)c1cccc[n+]1[O-]` was tested, and the GI50 (OVCAR-8) was > 100 µM (inactive), the GI50 (SF-295) was > 100 µM (inactive) and the GI50 (SW-620) was > 100 µM (inactive). For the same compound, the GI50 (HCT-15) was over 100 µM, the GI50 (SK-OV-3) was > 100 µM (inactive) and the GI50 (LXFL 529) was > 100 µM (inactive). For the same compound, the GI50 (EKVX) was > 100 µM (inactive), the GI50 (RPMI-8226) was > 100 µM (inactive) and the GI50 (M19-MEL) was > 100 µM (inactive). For the same compound, the GI50 (SK-MEL-28) was > 100 µM (inactive), the GI50 (KM12) was > 100 µM (inactive) and the GI50 (M14) was > 100 µM (inactive). For the same compound, the GI50 (NCI-H23) was > 100 µM (inactive), the GI50 (TK-10) was > 100 µM (inactive) and the GI50 (SK-MEL-5) was > 100 µM (inactive). For the same compound, the GI50 (XF498) was > 100 µM (inactive), the GI50 (HT-29) was > 100 µM (inactive) and the GI50 (SN12C) was > 100 µM (inactive). For the same compound, the GI50 (SR) was > 100 µM (inactive), the GI50 (DLD-1) was > 100 µM (inactive) and the GI50 (CAKI-1) was > 100 µM (inactive). For the same compound, the GI50 (SNB-78) was > 100 µM (inactive), the GI50 (OVCAR-5) was > 100 µM (inactive) and the GI50 (786-0) was > 100 µM (inactive). For the same compound, the GI50 (HL-60) was > 100 µM (inactive), the GI50 (NCI-H522) was > 100 µM (inactive) and the GI50 (IGROV-1) was > 100 µM (inactive). The GI50 (MOLT-4) was > 100 µM (inactive), the GI50 (UO-31) was > 100 µM (inactive) and the GI50 (CCRF-CEM) was > 100 µM (inactive). For the same compound, the GI50 (HCT-116) was > 100 µM (inactive), the GI50 (OVCAR-3) was > 100 µM (inactive) and the GI50 (HOP-18) was > 100 µM (inactive). For the same compound, the GI50 (DMS-273) was > 100 µM (inactive), the GI50 (HOP-62) was > 100 µM (inactive) and the GI50 (U-251) was > 100 µM (inactive). For the same compound, the GI50 (A498) was > 100 µM (inactive), the GI50 (ACHN) was > 100 µM (inactive) and the GI50 (SNB-75) was > 100 µM (inactive). For the same compound, the GI50 (SF-539) was > 100 µM (inactive), the GI50 (SNB-19) was > 100 µM (inactive) and the GI50 (SF-268) was > 100 µM (inactive). For the same compound, the GI50 (DMS-114) was > 100 µM (inactive), the GI50 (HCC 2998) was > 100 µM (inactive) and the GI50 (HOP-92) was > 100 µM (inactive). For the same compound, the GI50 (UACC-62) was > 100 µM (inactive), the GI50 (NCI-H460) was > 100 µM (inactive) and the GI50 (A549) was > 100 µM (inactive). For the same compound, the GI50 (KM-20L2) was > 100 µM (inactive), the GI50 (OVCAR-4) was > 100 µM (inactive) and the GI50 (RXF 631) was > 100 µM (inactive). The GI50 (UACC-257) was > 100 µM (inactive).
